Data taken from patent publication US10047084B2, “Imidazolone derivatives, pharmaceutical compositions and uses thereof” (BEIJING FORELANDPHARMA CO. LTD., priority 2013, dated 2018).

Legend:
SK-BR3/BT474 = experiment: CTG cell survival assay, SK-BR3/BT474; type: cell-based; conditions: SK-BR3/BT474 cells
Summary of the method: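 Cells were exposed to compounds in a 3-fold dilution series, with a top final concentration of 10 uM in 0.1% DMSO. Viable cells were quantified by CellTiter-Glo ATP luminescence.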

MV-4-11 = experiment: CTG cell survival assay, MV-4-11; type: cell-based; conditions: Homo sapiens, MV4-11, MV-4-11 cells
Summary of the method: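 Cells grown in RPMI 1640 with 10% FBS were plated and cultured 24 h at 37 °C, 5% CO2, then treated with compound diluted from 10 mM DMSO stocks. Viable cells were quantified as ATP by CellTiter-Glo luminescence.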

For `Cn1cc(-c2ccc(-c3ccc4ncc5c(c4c3)n([C@H]3CC[C@@H](O)CC3)c(=O)n5C)cn2)cn1` [Example 18, 1-((1s,4s)-4-hydroxycyclohexyl)-3-methyl-8-(6-(1-methyl-1H-pyrazol-4-yl)pyridin-3-yl)-1H-imidazo[4,5-c]quinolin-2(3H)-one], the EC50 (SK-BR3/BT474) was under 50 nM and the EC50 (MV-4-11) was under 100 nM.
For `Cn1cc(-c2ccc(-c3ccc4ncc5c(c4c3)n([C@@H]3CCCN(S(C)(=O)=O)C3)c(=O)n5C)cn2)cn1` [Example 31, (R)-3-methyl-8-(6-(1-methyl-1H-pyrazol-4-yl)pyridin-3-yl)-1-(1-(methanesulfonyl)piperidin-3-yl)-1H-imidazo[4,5-c]quinolin-2(3H)-one], the EC50 (SK-BR3/BT474) was under 100 nM and the EC50 (MV-4-11) was under 100 nM.
In the case of `Cn1cc(-c2ccc(-c3ccc4ncc5c(c4c3)n(C3CCCN(S(C)(=O)=O)C3)c(=O)n5C)cn2)cn1` (centres unmarked) [Example 3, 3-methyl-8-(6-(1-methyl-1H-pyrazol-4-yl)pyridin-3-yl)-1-(1-(methanesulfonyl)piperidin-3-yl)-1H-imidazo[4,5-c]quinolin-2(3H)-one], the EC50 (SK-BR3/BT474) is reported as under 100 nM and the EC50 (MV-4-11) is reported as under 200 nM.
`Cn1cc(-c2ccc(-c3ccc4ncc5c(c4c3)n([C@H]3CCN(S(C)(=O)=O)C3)c(=O)n5C)cn2)cn1` [Example 28, (S)-3-methyl-8-(6-(1-methyl-1H-pyrazol-4-yl)pyridin-3-yl)-1-(1-(methanesulfonyl)pyrrolidin-3-yl)-1H-imidazo[4,5-c]quinolin-2(3H)-one] gave an EC50 (SK-BR3/BT474) of under 50 nM and an EC50 (MV-4-11) of under 100 nM.
